Several values for one entry are separate records, joined by “and”; a condition that tells them apart may be missing. Equal values may be shown once. Entries after “also recorded” stand apart in the source; their conditions may differ.
Legend:
[1] = tested on: mouse aortic endothelial cells (MAECs); assay type: cell-based
[2] = tested on: K56 (an erythroleukemic cell line) and A 431 (an epidermal carcinoma cell line); conditions: 200 μM; cited from earlier work
[3] = tested on: bovine lung microvascular endothelial cells (BLMVECs)
Procedure: Bovine Lung Microvasular Endothelial Cells (BLMVECs) Culture The BLMVECs used in this study were obtained from the VEC Technologies, Inc, New York. BLMVECs cultured in MEM were maintained in 75 mm flasks at 37° C. in a humidified atmosphere of 5% CO2/95% air and grown to contact-inhibited monolayers with a typical cobblestone morphology [157]. Cells from each primary flask were detached with 0.05% trypsin, resuspended in fresh medium, and cultured in complete medium to 70% confluency for other studies. Cells from passages 10-14 were used in all the experiments.
Preparation of Particulates for Cell Culture Studies Microcrystalline particulates of LiNc-BuO were suspended in complete MEM medium (10 mg/0.5 ml) and sonicated for 30 sec pulse for ten times on ice with a probe sonicator at a setting of 5. The particulate suspension was cooled for 1 min between two successive 30 sec bursts of sonication. At the end of sonication, the suspension was placed on ice for exactly 2 min to allow the heavier particulates to settle down at the bottom of the tube and the supernatant liquid was transferred to a separate tube for intracellular delivery. The solution contained fine particulates of LiNc-BuO with a particulate size <2 μm. All the preparations were carried out under sterile conditions.
Internalization of Particulates into Endothelial Cells BLMVECs, at 70% confluence (10^4 cells/35 mm dish), in 1 ml complete MEM were treated with 50 μl of LiNc-BuO particulate suspension that contained particulates of <2 μm prepared by procedure as described under Materials and Methods. The cells were maintained at 37° C. under 95% air/5% CO2 environment. At 6 h intervals, for 72 h, cells were examined under light microscope for internalization of LiNc-BuO particulates. […] The cell pellet was resuspended in MEM containing glucose (0.5 g per 500 ml), at a density of 2×10^5 cells/ml and used for EPR analysis. Cells after LiNc-BuO internalization and repeated washings were photographed under an inverted microscope while still adherent to the substratum of the 35 mm dish. Cell viability was assessed by light microscopy and Alamar Blue assay according to the manufacturer's recommendations. Cell separation by trypsinization was avoided to keep the cell morphology and function in tact.
A 20 μL volume of the cell suspension containing 4,000 cells and 10 μM TAM was drawn into a gas-permeable Teflon tube and subjected to EPR spectroscopy as described below. The measurements were also carried out with Menadione (50 μM) and KCN (100 μM).
EPR Measurements The EPR measurements were carried out using a Bruker X-band (9.8 GHz) spectrometer (Bruker Instruments, Karlshrue, Germany) equipped with TM110 cavity. EPR spectral acquisitions were performed using custom-developed data acquisition software (SPEX) that was capable of fully automated data acquisition and processing. Unless otherwise mentioned, the EPR line-widths reported are peak-to-peak widths (.Bpp) of the first derivative spectra.
Simultaneous Measurements of LiNc-BuO and TAM Line-Shapes LiNc-BuO and TAM were used as site specific oximetry probes to measure intra- and extracellular oxygen concentration, respectively. Both LiNc-BuO and TAM give a single-line EPR spectrum, whose amplitude (intensity) and width depend on the amount/concentration of the probe and oxygen, respectively.

[4] = tested on: gastrocnemius muscle tissue of C3H mice; assay: Long-term stability and oxygen response of particulates implanted in gastrocnemius muscle; assay type: in vivo; conditions: versus original unimplanted particulate, through 180 day study
Procedure: Animal Studies Female C3H mice were used in the present work. The mice were supplied through the Frederick Cancer Research Center Animal Production, Frederick, Md. The animals were received at 6 weeks of age and housed five per cage in climate-controlled rooms and allowed food and acidified water ad lib. The animals were on average 50 days old at the time of experimentation and weighed 25±3 g. Experiments were conducted according to the principles outlined in the Guide for the Care and Use of Laboratory Animals prepared by the Institute of Laboratory Animal Resources, National Research Council.
Implantation of LiNc-BuO in Tumor and Gastrocnemius Muscle of Mice Mice were anesthetized with breathing of isoflurane (1.5%)—air mixture delivered through a nose cone. […]
Stability in Tissues In order to evaluate the long-term stability of these particulates in tissues, we implanted the particulates in the gastrocnemius muscle tissue of mice and performed repeated measurements of pO2 in the same animals over a period of time. […] The EPR spectrum of the particulate in the leg was recorded periodically up to 180 days following the implantation of particulate (FIG. 4). […] Mice were periodically sacrificed through the 180 day study period and tissue pO2 values were assessed to verify the registration of anoxic pO2 in the dead tissue. […]

[5] = Reduction of particle size using high frequency ultrasound; assay type: physicochemical; conditions: after 20 kHz then 269-1062.4 kHz sonication in water
Procedure: LiNc-BuO particles were crushed to a fine powder using a spatula. LiNc-BuO (20 mg) was suspended in […] of water without any additives (a total of 5 samples were made). The samples were then sonicated at 20 kHz frequency. 20 kHz sonolysis was conducted at a power setting of “2” for a total time of 5 minutes. All 5 samples were sonicated in this way. The samples were then allowed to sit overnight. The following day, the supernatant was extracted from all samples and placed in a measuring cylinder to make a 5 ml sample of suspended, small particles in aqueous solution. 1 ml of this stock was used to determine the particle size. The remaining 4 ml stock LiNc-BuO suspension was sonicated at various frequencies in the following way: 1 ml stock was placed in a test tube and suspended in the ultrasound bath which was operated at either 269, 354, 803 or 1062.4 kHz and a power of 60 W for a total time of 10 minutes. The 1 ml sample was then diluted to 2 ml using Milli-Q filtered water and the particle size determined. […] The procedure yielded particulates with mean size, 240 nm, with a min size, 72 nm.

[6] = tested on: Human arterial smooth muscle cells (HASMCs)
Procedure: Cultute of Smooth Muscle Cells Human arterial smooth muscle cells (HASMCs) were obtained from Clonetics, San Diego, Calif. at passage 4. Cells were cultured and passed in Ham's medium containing 225 ml of DMEM, 225 ml of F-12 medium, 50 ml of FBS (10%), 5 ml of glutamate and 5 ml of antibiotics in a final volume of 500 ml. Cell cultures were maintained at 37° C. under 95% air/5% CO2 environment in 35 mm dishes. HASMCs up to passage 11 were used in the current study.
Preparation of Particulates for Cell Culture Studies Fine crystals of freshly synthesized LiNc-BuO were suspended in Ham's medium (10 mg/0.5 ml) and sonicated ten times for 30 sec on ice with a probe sonicator at a setting of 5. The particulate mixture was cooled on ice for 1 min between two successive 30 sec burst of sonication. […] The size of the particulates for intracellular delivery was <2 μm as determined by optical microscopy.
Internalization of Particulates into Smooth Muscle Cells HMSMCs, at 70% confluence (10^4 cells/dish), in 1 ml Ham's medium were treated with 50 μl of LiNc-BuO particulate suspension that contained particulates of <2 μm prepared by the procedure as mentioned before. […] Cell viability was assessed by light microscopy and Alamar Blue assay according to the manufacturer's recommendations.

[7] = Effect of biological oxidoreductants, pH and radiation on EPR stability and oxygen response; assay type: physicochemical
Source text: Effect of Biological Oxidoreductants, pH, Temperature, and Radiation Since our goal was to use the newly synthesized particulate material for biological applications, we thoroughly investigated the EPR stability (paramagnetism) as well as sensitivity of the EPR line-width to molecular oxygen in presence of a variety of biological oxidants, reductants, pH and radiation. […] We also observed that pH of the medium in the range 2-10 had no effect on their EPR sensitivity to oxygen. We also treated the particulates with 15.5 Gy of Cobalt-60 γ-ray irradiation for 10 min and found no effect on the EPR properties of the particulates.

[8] = switching gas between nitrogen and room air
[9] = particulates <2 μm, within 18 h

Compound: c1ccc2c(c1)[I+]c1ccccc1-2 [DPI, diphenyleneiodonium chloride]
- effect on oxygen consumption rate (OCR) [1]: complete inhibition of oxygen consumption; also recorded: complete inhibition of the OCR; also recorded: completely blocked

Compound: CC1=CC(=O)c2ccccc2C1=O [menadione]
- increase of intra- and extracellular pO2 [2]: 10-15%
- effect on oxygen consumption rate (OCR) [1]: increased rates of oxygen consumption; also recorded: increased the OCRs
- increase in OCR ([1]; 50 μM): two-fold increase
- effect on OCR at lower concentrations ([1]; 10 and 50 μM, measured immediately): significant increase in the OCR
- effect on OCR at higher concentrations ([1]; 100 and 200 μM, measured immediately): decrease in the OCR; also recorded: significantly less compared to the control values
- effect on intra- and extracellular pO2 and oxygen gradient ([3]; menadione 50 μM, cyanide 100 μM, listed as Menadione): did not affect significantly

Compound: C=C(C)[C@H]1Cc2c(ccc3c2O[C@@H]2COc4cc(OC)c(OC)cc4[C@@H]2C3=O)O1 [rotenone]
- effect on oxygen consumption rate (OCR) [1]: complete inhibition of oxygen consumption; also recorded: complete inhibition of the OCR; also recorded: completely inhibited the consumption of oxygen

Compound: Lithium 5,9,14,18,23,27,32,36-octa-n-butoxy-2,3-naphthalocyanine [LiNc-BuO]
- spin density relative to LiPc: seven-fold higher
- anoxic peak-to-peak EPR line-width (0% oxygen, X-band, room temperature): 210 mg
- peak-to-peak EPR line-width in room air (20.9% oxygen (159 mmHg)): 1550 mg
- peak-to-peak EPR line-width in 100% oxygen (100% oxygen, 760 mmHg): 6675 mg
- microwave power saturation (X-band): not saturable for up to 25 mW; also recorded: nonsatuarable up to 25 mW
- oxygen sensitivity (slope of line-width versus pO2) (linear in pO2 range measured (0-160 or 0-760 mmHg)): 8.5 mG/mmHg
- pO2 resolution (physiological range): ~0.2 mmHg and ~0.1 mmHg
- peak-to-peak EPR line-width at 10% oxygen (suspended in PBS, 10% oxygen (pO2 76 mmHg)): 852 mg
- response time, deoxygenation [8]: ~20 s
- response time, oxygenation [8]: ~1 s
- effect of aqueous dispersion media on line-width and lineshape (water, PBS, cell culture media): not affected
- oxygen sensitivity of particulates recovered from dead tissue [4]: not changed
- mean particle size [5]: 240 nm
- min particle size [5]: 72 nm
- cytotoxicity (light microscopy, Alamar Blue) [6]: no apparent cytotoxicity
- internalization of particulates in cells [6, 9]: almost all the cells in the 35 mm dish internalized the particulates
- cytotoxicity (light microscopy, Alamar Blue) [3]: no cytotoxicity
- viability of cells that internalized probe (Trypan blue exclusion) [3]: > 95%
- mean spin density of particulates internalized in a single cell ([3]; in comparison with TAM standard): 6×10^11 spins/cell
- cells that internalized the particulates [3, 9]: ~95%
- effect of gamma irradiation on EPR properties ([7]; 15.5 Gy Cobalt-60, 10 min): no effect
- effect of pH on EPR sensitivity to oxygen ([7]; pH 2-10): no effect
- effect of oxidants and reductants on EPR spectrum or oxygen response ([7]; superoxide, hydroxyl, H2O2, singlet oxygen, alkylperoxyl, nitric oxide, GSH, ascorbate, 30 min): did not show any effect

From patent publication US8569482B2, “Nanoparticulate probe for in vivo monitoring of tissue oxygenation” (priority 2003, dated 2013)
